Assay results published in US20240016765A1, “Use of an alkaloid compound in the preparation of products for the prevention and/or treatment of cardiac damage” (NORTHWEST INSTITUTE OF PLATEAU BIOLOGY, CHINESE ACADEMY OF …, priority 2021, published 2024).

How the values were obtained:
Assay type in all cases: cell-based
H9c2 cardiomyocytes [1] = test: Toxicity of alkaloid compound I on H9c2 cardiomyocytes (MTT colorimetric method); settings: 24 h incubation, FIG. 1
Description: H9c2 cells are incubated with different concentrations (0.1 μM, 1 μM, 5 μM, 10 μM, 20 μM, 40 μM, 80 μM, 160 μM) of alkaloid compounds I for 24 h, and then the toxic effects of the alkaloid compounds on cardiomyocytes are evaluated by MTT colorimetric method.

H9c2 cardiomyocytes [2] = test: Effect on DOX-induced H9c2 cardiomyocyte toxicity (MTT colorimetric assay); settings: 1 h pre-incubation, then 2.5 μM DOX 24 h, FIG. 2
Description: (1) H9c2 cells are pre-incubated with alkaloid compound I for lh, then add 2.5 μM doxorubicin (DOX), incubate for 24 h. MTT colorimetric assay is used to determine the apoptotic activity of alkaloid compound I on DOX-induced cardiomyocytes and determine the optimal range of the dose concentration.

Cleaved-Caspase-3 = test: Western blot of Cleaved-Caspase-3 in DOX-treated H9c2 cardiomyocytes; settings: FIG. 3
Description: (§1) (2) Incubate H9c2 cells with alkaloid compound I for 1 hour, then add […] DOX and incubate for 24 hours; extract the proteins, proceed with hydrolysis and collect the resulting solution, centrifuge at 12000 rpm for 15 minutes, collect the supernatant and discard the precipitate, store under −80° C. until analysis. Perform SDS-PAGE electrophoresis (Stepl voltage set at 80V for 30 minutes, followed by Step2 voltage set at 120V for 180 minutes), using 5% concentrated gel. Carry out membrane transfer using a PVDF membrane, with a current of 80 mA for 30 minutes. Then, conduct the closure and hybridization by using 5% skim milk powder for 1 hour of closure, followed by overnight incubation with primary antibody, and 1-2 hours of incubation with secondary antibody at room temperature with gentle shaking. Finally, visualize the proteins by using ECL reagent and observe the expression of Caspase-3 and p-JNK/JNK proteins using a gel imaging system.

p-JNK = test: Western blot of p-JNK/JNK in DOX-treated H9c2 cardiomyocytes; settings: FIG. 4; for p-JNK expression level compared with DOX model group: 1 h incubation, then DOX 24 h
Description: as §1

Structure (SMILES): O=C(/C=C/c1ccc(O)cc1)NCCCCO [compound I, 4-[(E)-p-coumaroylamino]butan-1-ol]
- toxic effect on H9c2 cell viability compared with Con group (H9c2 cardiomyocytes [1]; 80 μM): significantly different compared with the Con group
- toxic effect on H9c2 cell viability compared with Con group (H9c2 cardiomyocytes [1]; 0.1-40 μM): not statistically different from the Con group
- difference from DOX model group in DOX-induced cardiomyocyte toxicity (H9c2 cardiomyocytes [2]; 5-80 μM): a significant difference or a highly significant difference
- inhibition of DOX-induced cardiomyocyte toxicity compared with DOX model group (H9c2 cardiomyocytes [2]; different concentration ranges): all exhibit inhibition of DOX-induced cardiomyocyte toxicity
- Cleaved-Caspase-3 expression level compared with DOX model group (Cleaved-Caspase-3; 10 μM, 20 μM and 40 μM, 1 h incubation, then DOX 24 h): able to inhibit the elevation of Cleaved-Caspase-3 level induced by DOX to varying degrees
- p-JNK expression level compared with DOX model group (p-JNK; high-dose 40 μM): a highly significant difference
- p-JNK expression level compared with DOX model group (p-JNK; low-dose 10 μM): no statistically significant difference
- p-JNK expression level compared with DOX model group (p-JNK; moderate-dose 20 μM): a highly significant difference

Structure (SMILES): COc1cccc2c1C(=O)c1c(O)c3c(c(O)c1C2=O)C[C@@](O)(C(=O)CO)C[C@@H]3O[C@H]1C[C@H](N)[C@H](O)[C@H](C)O1 [DOX, doxorubicin, reference compound]
- Cleaved-Caspase-3 expression level compared with Con group (Cleaved-Caspase-3; DOX model group, DOX 24 h): significantly higher
- p-JNK expression level compared with Con group (p-JNK; DOX model group, DOX 24 h): significantly higher
